Measured values as given in US10806142B2, “2-amino-5-ketoxime-pyrimidine derivatives and their use for controlling undesired plant growth” (Bayer CropScience Aktiengesellschaft, priority 2015, dated 2020).

Key:
[1] = logp (HCOOH), physicochemical characterization; conditions: HCOOH (formic acid)
Abutilon theophrasti [2] = assay: Pre-emergence herbicidal effect; format: in vivo; conditions: dosage 320 g a.i./ha
Description: (§1) 1. Pre-Emergence Herbicidal Effect and Crop Plant Compatibility Seeds of monocotyledonous and dicotyledonous weed plants and crop plants are laid out in wood-fiber pots in sandy loam and covered with soil. The compounds of the invention, formulated in the form of wettable powders (WP) or as emulsion concentrates (EC), are then applied to the surface of the covering soil as aqueous suspension or emulsion at a water application rate equating to 600 to 800 L/ha with addition of 0.2% wetting agent. After the treatment, the pots are placed in a greenhouse and kept under good growth conditions for the trial plants. The damage to the trial plants is scored visually after a trial duration of 3 weeks by comparison with untreated controls (herbicidal activity in percent (%): 100% efficacy=the plants have died, 0% efficacy=like control plants). [table]

Alopecurus myosuroides = assay: Pre-emergence herbicidal effect; format: in vivo
Description: as §1

Amaranthus retroflexus [3] = assay: Pre-emergence herbicidal effect; format: in vivo
Description: as §1

Avena fatua = assay: Pre-emergence herbicidal effect; format: in vivo; conditions: dosage 320 g a.i./ha
Description: as §1

Echinochloa crus-galli = assay: Pre-emergence herbicidal effect; format: in vivo
Description: as §1

Matricaria inodora [4] = assay: Pre-emergence herbicidal effect; format: in vivo
Description: as §1

Polygpnum convolvulus [5] = assay: Pre-emergence herbicidal effect; format: in vivo
Description: as §1

Setaria viridis [6] = assay: Pre-emergence herbicidal effect; format: in vivo
Description: as §1

Stellaria media [7] = assay: Pre-emergence herbicidal effect; format: in vivo
Description: as §1

Veronica persica = assay: Pre-emergence herbicidal effect; format: in vivo
Description: as §1

Viola tricolor [8] = assay: Pre-emergence herbicidal effect; format: in vivo
Description: as §1

Amaranthus retroflexus [9] = assay: Post-emergence herbicidal effect; format: in vivo; conditions: visual score after about 3 weeks
Method: (§2) [table] 2. Post-Emergence Herbicidal Effect and Crop Plant Compatibility Seeds of monocotyledonous and dicotyledonous weed and crop plants are laid out in sandy loam in wood-fiber pots, covered with soil and cultivated in a greenhouse under good growth conditions. 2 to 3 weeks after sowing, the test plants are treated at the one-leaf stage. The compounds of the invention, formulated in the form of wettable powders (WP) or as emulsion concentrates (EC), are then sprayed onto the green parts of the plants as aqueous suspension or emulsion at a water application rate equating to 600 to 800 L/ha with addition of 0.2% wetting agent. After the trial plants have been left to stand in a greenhouse under optimal growth conditions for about 3 weeks, the efficacy of the formulations is scored visually in comparison to untreated controls (herbicidal action in percent (%): 100% efficacy=the plants have died, 0% efficacy=like control plants).

Ipomoea purpurea = assay: Post-emergence herbicidal effect; format: in vivo; conditions: visual score after about 3 weeks
Method: as §2

Setaria viridis [10] = assay: Post-emergence herbicidal effect; format: in vivo; conditions: visual score after about 3 weeks
Method: as §2

Viola tricolor [11] = assay: Post-emergence herbicidal effect; format: in vivo; conditions: visual score after about 3 weeks
Method: as §2

Cyperus esculentus [12] = assay: Pre-emergence herbicidal effect; format: in vivo; conditions: dosage 320 g a.i./ha
Description: as §1

Polygpnum convolvulus [13] = assay: Post-emergence herbicidal effect; format: in vivo; conditions: visual score after about 3 weeks
Method: as §2

Stellaria media [14] = assay: Post-emergence herbicidal effect; format: in vivo; conditions: visual score after about 3 weeks
Method: as §2

Abutilon theophrasti [15] = assay: Post-emergence herbicidal effect; format: in vivo; conditions: visual score after about 3 weeks
Method: as §2

Cyperus esculentus [16] = assay: Post-emergence herbicidal effect; format: in vivo; conditions: dosage 320 g a.i./ha, visual score after about 3 weeks
Method: as §2

Lolium multiflorum = assay: Post-emergence herbicidal effect; format: in vivo; conditions: dosage 320 g a.i./ha, visual score after about 3 weeks
Method: as §2

Matricaria inodora [17] = assay: Post-emergence herbicidal effect; format: in vivo; conditions: visual score after about 3 weeks
Method: as §2

Compound	chromatographic logP [1]	Herbicidal activity against AMARE (Amaranthus retroflexus [3]; dosage 80 g a.i./ha) [%]	Herbicidal activity against AMARE (Amaranthus retroflexus [3]; dosage 320 g a.i./ha) [%]	Herbicidal activity against ECHCG (Echinochloa crus-galli; dosage 320 g a.i./ha) [%]	Herbicidal activity against MATIN (Matricaria inodora [4]; dosage 80 g a.i./ha) [%]	Herbicidal activity against MATIN (Matricaria inodora [4]; dosage 320 g a.i./ha) [%]	Herbicidal activity against POLCO (Polygpnum convolvulus [5]; dosage 80 g a.i./ha) [%]	Herbicidal activity against POLCO (Polygpnum convolvulus [5]; dosage 320 g a.i./ha) [%]	Herbicidal activity against SETVI (Setaria viridis [6]; dosage 320 g a.i./ha) [%]	Herbicidal activity against STEME (Stellaria media [7]; dosage 80 g a.i./ha) [%]	Herbicidal activity against STEME (Stellaria media [7]; dosage 320 g a.i./ha) [%]	Herbicidal activity against VERPE (Veronica persica; dosage 80 g a.i./ha) [%]	Herbicidal activity against VERPE (Veronica persica; dosage 320 g a.i./ha) [%]	Herbicidal activity against VIOTR (Viola tricolor [8]; dosage 80 g a.i./ha) [%]	Herbicidal activity against VIOTR (Viola tricolor [8]; dosage 320 g a.i./ha) [%]	Herbicidal activity against PHBPU (Ipomoea purpurea; dosage 320 g a.i./ha) [%]	Herbicidal activity against SETVI (Setaria viridis [10]; dosage 320 g a.i./ha) [%]	Herbicidal activity against VIOTR (Viola tricolor [11]; dosage 80 g a.i./ha) [%]	Herbicidal activity against VIOTR (Viola tricolor [11]; dosage 320 g a.i./ha) [%]	Herbicidal activity against POLCO (Polygpnum convolvulus [13]; dosage 80 g a.i./ha) [%]	further results
CC/C(=N\O)c1cnc(N[C@H]2c3cc(C)ccc3C[C@@H]2C)nc1CC [Compound 1.40a, N-[(1R,2S)-2,6-Dimethyl-2,3-dihydro-1H-inden-1-yl]-4-ethyl-5-[(1E)-N-hydroxypropanimidoyl]pyrimidine-2-amine]	3.71	100	100	100	90	100	100	100	100	100	100	100	100	100	100	100	100	90	90	–	Herbicidal activity against ABUTH (Abutilon theophrasti [2]): 100%; Herbicidal activity against ALOMY (Alopecurus myosuroides; dosage 80 g a.i./ha): 90%; Herbicidal activity against ALOMY (Alopecurus myosuroides; dosage 320 g a.i./ha): 100%; Herbicidal activity against AVEFA (Avena fatua): 100%; Herbicidal activity against ECHCG (Echinochloa crus-galli; dosage 80 g a.i./ha): 90%; Herbicidal activity against SETVI (Setaria viridis [6]; dosage 80 g a.i./ha): 100%; Herbicidal activity against AMARE (Amaranthus retroflexus [9]; dosage 80 g a.i./ha): 90%; Herbicidal activity against AMARE (Amaranthus retroflexus [9]; dosage 320 g a.i./ha): 90%; Herbicidal activity against PHBPU (Ipomoea purpurea; dosage 80 g a.i./ha): 80%; Herbicidal activity against SETVI (Setaria viridis [10]; dosage 80 g a.i./ha): 100%
CC/C(=N/O)c1cnc(N[C@H]2c3cc(C)ccc3C[C@@H]2C)nc1CC [Compound 1.40b, N-[(1R,2S)-2,6-dimethyl-2,3-dihydro-1H-inden-1-yl]-4-ethyl-5-[(1Z)-N-hydroxypropanimidoyl]pyrimidine-2-amine]	3.86	100	100	100	90	100	100	100	100	90	100	100	100	100	100	90	90	90	90	80	Herbicidal activity against ALOMY (Alopecurus myosuroides; dosage 320 g a.i./ha): 80%; Herbicidal activity against AVEFA (Avena fatua): 90%; Herbicidal activity against CYPES (Cyperus esculentus [12]): 100%; Herbicidal activity against ECHCG (Echinochloa crus-galli; dosage 80 g a.i./ha): 90%; Herbicidal activity against SETVI (Setaria viridis [6]; dosage 80 g a.i./ha): 100%; Herbicidal activity against AMARE (Amaranthus retroflexus [9]; dosage 80 g a.i./ha): 90%; Herbicidal activity against AMARE (Amaranthus retroflexus [9]; dosage 320 g a.i./ha): 100%; Herbicidal activity against PHBPU (Ipomoea purpurea; dosage 80 g a.i./ha): 80%; Herbicidal activity against POLCO (Polygpnum convolvulus [13]; dosage 320 g a.i./ha): 80%; Herbicidal activity against STEME (Stellaria media [14]; dosage 80 g a.i./ha): 70%; Herbicidal activity against STEME (Stellaria media [14]; dosage 320 g a.i./ha): 80%
C/C(=N\Oc1ccc(F)cc1)c1cnc(N[C@H]2c3cc(C)ccc3C[C@@H]2C)nc1 [Compound 1.101a, N-[(1R,2S)-2,6-Dimethyl-2,3-dihydro-1H-inden-1-yl]-5-[(1E)-N-(4-fluorophenoxy)ethanimidoyl]pyrimidine-2-amine]	5.34	90	100	100	80	100	90	–	–	100	100	100	100	–	100	–	80	90	90	100	Herbicidal activity against CYPES (Cyperus esculentus [12]): 90%; Herbicidal activity against ABUTH (Abutilon theophrasti [15]; dosage 80 g a.i./ha): 90%; Herbicidal activity against ABUTH (Abutilon theophrasti [15]; dosage 320 g a.i./ha): 100%; Herbicidal activity against POLCO (Polygpnum convolvulus [13]; dosage 320 g a.i./ha): 100%; Herbicidal activity against STEME (Stellaria media [14]; dosage 80 g a.i./ha): 90%; Herbicidal activity against STEME (Stellaria media [14]; dosage 320 g a.i./ha): 90%
C/C(=N/Oc1ccc(F)cc1)c1cnc(N[C@H]2c3cc(C)ccc3C[C@@H]2C)nc1 [Compound 1.101b, N-[(1R,2S)-2,6-dimethyl-2,3-dihydro-1H-inden-1-yl]-5-[(1Z)-N-(4-fluorophenoxy)ethanimidoyl]pyrimidine-2-amine]	5.56	90	100	90	80	100	–	100	100	100	100	100	100	90	100	100	–	90	90	80	Herbicidal activity against ABUTH (Abutilon theophrasti [15]; dosage 80 g a.i./ha): 80%; Herbicidal activity against ABUTH (Abutilon theophrasti [15]; dosage 320 g a.i./ha): 100%; Herbicidal activity against AMARE (Amaranthus retroflexus [9]; dosage 320 g a.i./ha): 90%; Herbicidal activity against CYPES (Cyperus esculentus [16]): 100%; Herbicidal activity against LOLMU (Lolium multiflorum): 100%; Herbicidal activity against MATIN (Matricaria inodora [17]; dosage 320 g a.i./ha): 100%; Herbicidal activity against POLCO (Polygpnum convolvulus [13]; dosage 320 g a.i./ha): 100%; Herbicidal activity against STEME (Stellaria media [14]; dosage 80 g a.i./ha): 80%; Herbicidal activity against STEME (Stellaria media [14]; dosage 320 g a.i./ha): 90%
CCO/N=C(/C)c1cnc(N[C@H]2c3cc(C)ccc3C[C@@H]2C)nc1 [Compound 1.103b, N-[(1R,2S)-2,6-dimethyl-2,3-dihydro-1H-inden-1-yl]-5-[(1Z)-N-ethoxyethanimidoyl]pyrimidine-2-amine]	4.92	80	100	100	100	100	100	100	90	100	100	100	100	100	100	90	80	90	100	90	Herbicidal activity against ABUTH (Abutilon theophrasti [15]; dosage 80 g a.i./ha): 90%; Herbicidal activity against ABUTH (Abutilon theophrasti [15]; dosage 320 g a.i./ha): 100%; Herbicidal activity against CYPES (Cyperus esculentus [16]): 80%; Herbicidal activity against MATIN (Matricaria inodora [17]; dosage 80 g a.i./ha): 80%; Herbicidal activity against MATIN (Matricaria inodora [17]; dosage 320 g a.i./ha): 100%; Herbicidal activity against POLCO (Polygpnum convolvulus [13]; dosage 320 g a.i./ha): 100%; Herbicidal activity against STEME (Stellaria media [14]; dosage 80 g a.i./ha): 80%; Herbicidal activity against STEME (Stellaria media [14]; dosage 320 g a.i./ha): 90%
